Assay results reported in ChEMBL document CHEMBL4602633, “Discovery of coumarin-based selective aldehyde dehydrogenase 1A1 inhibitors with glucose metabolism improving activity” (Eur J Med Chem, 2020).
The source made the active and inactive calls. The calls are words filed in the database; no cut-off is given here.

Key:
[1] = biological target: T1, Aldehyde dehydrogenase 1A1 (Homo sapiens) (UniProt P00352); assay: Inhibition of N-terminal Met/His6-tagged recombinant human ALDH1A1 (Ser2-Ser501 residues) expressed in Escherichia coli cells at 10 uM using propionaldehyde as substrate preincubated for 15 mins followed by substrate addition by spectrophotometric method relative to control
T1 sequence (whole entry): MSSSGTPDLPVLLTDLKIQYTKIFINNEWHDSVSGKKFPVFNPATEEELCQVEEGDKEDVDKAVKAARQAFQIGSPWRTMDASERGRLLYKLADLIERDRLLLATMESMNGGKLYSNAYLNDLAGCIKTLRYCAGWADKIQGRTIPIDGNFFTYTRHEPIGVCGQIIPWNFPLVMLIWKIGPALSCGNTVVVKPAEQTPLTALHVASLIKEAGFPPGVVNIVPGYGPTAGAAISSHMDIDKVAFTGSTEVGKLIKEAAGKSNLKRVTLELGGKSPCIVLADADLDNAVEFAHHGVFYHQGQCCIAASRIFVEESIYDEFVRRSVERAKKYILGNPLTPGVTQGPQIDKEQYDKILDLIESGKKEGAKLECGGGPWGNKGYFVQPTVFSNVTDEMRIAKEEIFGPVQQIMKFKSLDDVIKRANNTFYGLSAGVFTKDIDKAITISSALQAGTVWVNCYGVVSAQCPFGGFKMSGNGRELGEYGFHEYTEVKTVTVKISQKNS

[2] = biological target: T2, Aldehyde dehydrogenase 1A1 (Homo sapiens, UniProt P00352); assay: Inhibition of N-terminal Met/His6-tagged recombinant human ALDH1A1 (Ser2-Ser501 residues) expressed in Escherichia coli cells using propionaldehyde as substrate preincubated for 15 mins followed by substrate addition by spectrophotometric method
T2 sequence (P00352 whole entry): T1 sequence (whole entry)

[3] = biological target: T3, Retinal dehydrogenase 2 (Homo sapiens) (UniProt O94788); assay: Inhibition of recombinant N-terminal His6-tagged human ALDH1A2 (Met1 to Ser518 residues) expressed in Escherichia coli at 10 uM using propionaldehyde as substrate preincubated for 15 mins followed by substrate addition by spectrophotometric method relative to control
T3 sequence (whole entry): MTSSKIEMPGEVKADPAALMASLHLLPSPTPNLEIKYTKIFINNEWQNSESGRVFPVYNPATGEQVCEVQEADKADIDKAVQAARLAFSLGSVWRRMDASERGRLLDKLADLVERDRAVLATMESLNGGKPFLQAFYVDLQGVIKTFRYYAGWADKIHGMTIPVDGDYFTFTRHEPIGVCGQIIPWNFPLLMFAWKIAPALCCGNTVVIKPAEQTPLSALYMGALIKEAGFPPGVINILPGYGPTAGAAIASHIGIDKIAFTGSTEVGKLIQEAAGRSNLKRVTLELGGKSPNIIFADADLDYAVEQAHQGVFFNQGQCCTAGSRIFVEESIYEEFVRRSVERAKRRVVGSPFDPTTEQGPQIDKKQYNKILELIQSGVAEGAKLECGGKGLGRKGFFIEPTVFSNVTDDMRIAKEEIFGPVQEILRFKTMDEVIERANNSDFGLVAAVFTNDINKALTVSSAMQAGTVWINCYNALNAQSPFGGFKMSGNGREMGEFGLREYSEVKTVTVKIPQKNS

[4] = biological target: T4, Retinaldehyde dehydrogenase 3 (Homo sapiens) (UniProt P47895); assay: Inhibition of recombinant N-terminal His6-tagged human ALDH1A3 (Met1 to Pro512 reisudes) expressed in Escherichia coli at 10 uM using propionaldehyde as substrate preincubated for 15 mins followed by substrate addition by spectrophotometric method relative to control
T4 sequence (whole entry): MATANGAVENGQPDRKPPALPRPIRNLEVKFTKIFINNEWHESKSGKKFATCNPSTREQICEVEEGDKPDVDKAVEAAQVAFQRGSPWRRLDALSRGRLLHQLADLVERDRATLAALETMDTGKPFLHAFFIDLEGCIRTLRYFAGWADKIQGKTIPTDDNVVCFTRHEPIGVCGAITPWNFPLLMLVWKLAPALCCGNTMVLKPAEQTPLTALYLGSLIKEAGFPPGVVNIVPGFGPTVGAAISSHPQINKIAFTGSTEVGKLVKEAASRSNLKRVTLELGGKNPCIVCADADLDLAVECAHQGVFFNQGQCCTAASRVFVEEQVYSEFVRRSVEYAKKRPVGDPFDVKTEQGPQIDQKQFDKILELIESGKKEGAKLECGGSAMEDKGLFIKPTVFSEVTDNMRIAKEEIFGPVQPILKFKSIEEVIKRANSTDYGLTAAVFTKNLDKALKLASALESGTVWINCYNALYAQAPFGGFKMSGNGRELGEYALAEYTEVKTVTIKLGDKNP

[5] = biological target: T5, Aldehyde dehydrogenase, mitochondrial (Homo sapiens) (UniProt P05091); assay: Inhibition of recombinant human ALDH2 at 10 uM using propionaldehyde as substrate preincubated for 15 mins followed by substrate addition by spectrophotometric method relative to control
T5 sequence (whole entry): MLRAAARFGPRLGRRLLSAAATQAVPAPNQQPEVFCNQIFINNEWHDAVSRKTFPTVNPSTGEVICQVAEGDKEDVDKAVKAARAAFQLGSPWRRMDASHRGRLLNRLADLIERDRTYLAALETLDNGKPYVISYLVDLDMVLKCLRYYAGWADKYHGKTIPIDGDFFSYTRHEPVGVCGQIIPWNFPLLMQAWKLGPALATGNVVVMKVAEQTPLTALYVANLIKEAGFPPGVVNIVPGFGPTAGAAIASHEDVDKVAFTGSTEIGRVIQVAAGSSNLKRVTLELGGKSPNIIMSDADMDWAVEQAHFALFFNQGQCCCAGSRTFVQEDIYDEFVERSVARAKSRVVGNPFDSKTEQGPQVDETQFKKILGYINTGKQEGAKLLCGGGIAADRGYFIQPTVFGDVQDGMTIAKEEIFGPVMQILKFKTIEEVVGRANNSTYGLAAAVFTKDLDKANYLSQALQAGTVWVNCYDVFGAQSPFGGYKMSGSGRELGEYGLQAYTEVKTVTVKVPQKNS

[6] = biological target: T6, Aldehyde dehydrogenase, dimeric NADP-preferring (Homo sapiens) (UniProt P30838); assay: Inhibition of recombinant C-terminal His6-tagged human ALDH3A1 (Met1 to His453 residues) expressed in mammalian expression system at 10 uM using benzaldehyde as substrate preincubated for 15 mins followed by substrate addition by spectrophotometric method relative to control
T6 sequence (whole entry): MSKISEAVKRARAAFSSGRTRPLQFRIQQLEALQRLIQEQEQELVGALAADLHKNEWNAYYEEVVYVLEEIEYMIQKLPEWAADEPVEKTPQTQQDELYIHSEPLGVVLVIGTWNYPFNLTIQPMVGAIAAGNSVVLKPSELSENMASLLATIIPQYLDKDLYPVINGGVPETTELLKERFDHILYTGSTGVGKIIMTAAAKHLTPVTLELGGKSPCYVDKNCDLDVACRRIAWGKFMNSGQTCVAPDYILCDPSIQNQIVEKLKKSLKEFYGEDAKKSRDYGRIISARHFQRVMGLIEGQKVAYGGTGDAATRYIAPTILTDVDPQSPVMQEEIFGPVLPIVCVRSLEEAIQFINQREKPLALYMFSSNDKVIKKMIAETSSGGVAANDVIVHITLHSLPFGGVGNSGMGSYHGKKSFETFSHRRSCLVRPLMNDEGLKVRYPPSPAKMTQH

[7] = Half life in human liver microsomes at 2 ug/ml preincubated for 5 mins followed by NADPH addition and measured up to 45 mins by LC-MS/MS analysis; format: ADME, Microsome
[8] = Half life in […] plasma at 2.5 mg/kg, iv measured over 6 hrs by LC-MS/MS analysis; format: ADME, organism-based
[9] = Half life in […] plasma at 25 mg/kg, po measured over 12 hrs by LC-MS/MS analysis; format: ADME, organism-based
[10] = AUC in […] plasma at 2.5 mg/kg, iv measured over 6 hrs by LC-MS/MS analysis; format: ADME, organism-based; design: time < 6 hr, dose 2.5 mg/kg, route intravenous
[11] = Cmax in […] plasma at 2.5 mg/kg, iv after 5 mins by LC-MS/MS analysis; format: ADME, organism-based; design: dose 2.5 mg/kg, route intravenous
[12] = Cmax in […] plasma at 25 mg/kg, po measured over 12 hrs by LC-MS/MS analysis; format: ADME, organism-based; design: dose 25 mg/kg, route oral
[13] = AUC in […] plasma at 25 mg/kg, po measured over 12 hrs by LC-MS/MS analysis; format: ADME, organism-based; design: time < 12 hr, dose 25 mg/kg, route oral
[14] = Volume of distribution at steady state in […] plasma at 2.5 mg/kg, iv measured over 6 hrs by LC-MS/MS analysis; format: ADME, organism-based; settings: read-out: Vdss
[15] = Clearance in […] plasma at 2.5 mg/kg, iv measured over 6 hrs by LC-MS/MS analysis; format: ADME, organism-based
[16] = Oral bioavailability in […] at 25 mg/kg measured over 12 hrs by LC-MS/MS analysis; format: ADME, organism-based; settings: in vivo
HepG2 = assay: Inhibition of palmitic acid-induced glucose consumption impairment in human HepG2 cells at 2 to 5 uM after 24 hrs; format: functional, cell-based

inhibition [1]: 61.8%
IC50 [2]: 3.87 µM
inhibition [3]: 2.13%
inhibition [4]: 2.59%
inhibition [5]: 2.24%
inhibition [6]: 1.89%
half-life at 2 ug/ml [7]: 38.5 min
half-life [8]: 45.4 min
half-life [9]: 108 min
AUC at 6 h [10]: 1540 ng·h/mL
Cmax [11]: 2840 ng/mL
Cmax [12]: 3320 ng/mL
AUC at 12 h [13]: 6470 ng·h/mL
Vd [14]: 0.843 L/kg
clearance [15]: 26.8 mL/min/kg
bioavailability [16]: 41.9%
Compound: CCN(C(=O)CCN1CCN(C(=O)c2ccco2)CC1)c1ccc2c(C)cc(=O)oc2c1
inhibition (HepG2): Active
